The values that follow come from patent US6107549A, “Genetically engineered plant resistance to thiazopyr and other pyridine herbicides” (Monsanto Company, priority 1999, dated 2000).

In one data set the test system is porcine liver esterase. The data set can be described thus: Pyridine-esterase activity assay with porcine liver esterase. Format: biochemical. Conditions: for esterase activity against substrate: commercially available preparations of porcine liver esterase. How it is done: (§1) Esterase activity assays. Esterase activity was measured in vitro by conversion of either [^14 C]thiazopyr or [^14 C]MON 14300 to their corresponding monoacid. Pyridine-esterase activity was assayed during protein purification and from tissue extracts of transgenic plants. The homogenizing buffer for plant tissues consisted of 100 mM Tris pH 8.0, 1 mM EDTA, 1 mM DTT, and 10% glycerol in water. Plant tissues (1 g/ml buffer) including leaves, seeds, flowers, seedlings, etc. were homogenized in conical centrifuge tubes using a spinning pestle at 4° C. Following centrifugation (12,000× g), the supernatant (250 μl) was assayed immediately for esterase activity by incubation with [^14 C]thiazopyr or [^14 C]MON 14300 (4 μg) in 0.1 M Tris pH 8.0 buffer (50 μl) at 37° C. The reaction was sampled (100 μL) at various times (0.5 to 100 hr) to generate a kinetic profile of monoacid formation. The reaction was stopped by addition of 1% trifluoroacetic acid in acetonitrile (v/v, 150 μl). Following centrifugation (12,000× g for 3 min), the supernatant was analyzed by HPLC/RAD (radioactivity detection) to resolve the monoacid from the parent herbicide and other metabolites. Control reactions in the absence of the esterase recovered un-reacted thiazopyr or MON 14300 for the duration of experiments. Esterase activity was also assayed during protein purification following a similar procedure except a single time-point (1-2 hrs) of incubation was selected within the linear range of reaction. In vitro assays also employed three commonly used calorimetric (p-nitrophenyl butyrate) or fluorescent (4-methyl umbelliferyl butyrate and 5-bromo-4-chloro-3-indolylacetate) substrates. These substrates are useful in rapidly and qualitatively detecting general esterase activity.
Purification of pyridine-esterases from porcine and rabbit liver. Porcine and rabbit liver esterases, obtained commercially as (NH4)2 SO4 suspensions, were desalted using a disposable SEPHADEX™ G25 size exclusion column (Pharmacia Biotech). Proteins (1 to 10 mg) were initially separated on a strong anion exchange column (MONO Q™, Pharmacia Biotech) at 4° C. The column was linearly programmed in 30 minutes from 0 to 0.4 M KCl in 10 mM Tris buffer, pH 7.4 at a flow rate of 1 m/min. Subsequently, the column was programmed from 0.4 to 1.0 M KCl in 10 min. Effluent was monitored by UV (280 nm) and fractions were collected at 1 ml intervals. Effluent fractions were assayed for protein by Coomassie dye (Bio Rad Laboratory) and for pyridine-esterase activity. Protein purity was determined by SDS-PAGE on 10 to 15% gradient gels (Pharmacia Biotech) with visualization of proteins by silver staining.
Following anion exchange chromatography, fractions with the highest purity and activity were pooled. After desalting, the pooled fractions were further separated by isoelectric focusing (IEF) chromatography on a MONO P™ column (Pharmacia Biotech) at 4° C. IEF chromotography was conducted at different pH ranges (3-9, 4-7, 5.5-6.5 or 4.5-5.5) using appropriate combinations of POLYBUFFERS™ (Pharmacia Biotech) and a flow rate of […]. Effluent fractions from IEF chromatography were analyzed for protein and pyridine-esterase activity. The protein purity of the fractions was determined by SDS-PAGE and IEF-PAGE.

A further data set concerns tobacco calli. The data set can be described thus: Herbicide toxicity to tobacco calli on selection media. To be noted: for callus survival: control calli, concentrations above 1 μM, after 3 weeks; for suitable selection concentration for RLE3-expressing transgenic tobacco calli: preliminary experiments. The class given is cell-based. An excerpt: The experimental procedure compared the herbicide toxicity of the pyridines upon exposure to tobacco calli that were transformed with a plasmid DNA, pMON13765 (FIG. 8) containing the RLE3 gene, and tobacco calli controls transformed with isogenic plasmid DNA without the RLE3 gene. The vectors, which also encoded NPTII for kanamycin selection, were introduced via Agrobacterium transformation. Kanamycin resistant calli were cut into pieces of 3-5 mm diameter and transferred onto selection media (Murahige and Skoog basal salt mixture in 0.9% agar) containing 0.01, 0.1, 1.0, or 10.0 μM concentration of either thiazopyr or MON 14300 (1 mM stock solution in DMSO). Plates were placed in a lighted growth chamber maintained at 22° C. […] Most control calli were dead after 3 weeks at pyridine herbicide concentrations above 1 μM. […] Preliminary experiments identified 0.1 μM 14300 or thiazopyr as a suitable selection concentration for identifying transgenic tobacco calli that are expressing the RLE3 esterase. It is believed that any member of the pyridine herbicide family that is deactivated by an esterase, and any esterase gene that can hydrolyze the methylester group of a pyridine herbicide would be able to function in this selection system.

Data set [1] deals with T1, pyridine-esterase (Oryctolagus cuniculus, UniProt P12337, A196R/H30K).
T1 construct: made in house; host or cells: transgenic tobacco (Samson) and tomato (UC82B) plants, tissue extracts
T1 sequence (P12337 19-565 H30K/A196R): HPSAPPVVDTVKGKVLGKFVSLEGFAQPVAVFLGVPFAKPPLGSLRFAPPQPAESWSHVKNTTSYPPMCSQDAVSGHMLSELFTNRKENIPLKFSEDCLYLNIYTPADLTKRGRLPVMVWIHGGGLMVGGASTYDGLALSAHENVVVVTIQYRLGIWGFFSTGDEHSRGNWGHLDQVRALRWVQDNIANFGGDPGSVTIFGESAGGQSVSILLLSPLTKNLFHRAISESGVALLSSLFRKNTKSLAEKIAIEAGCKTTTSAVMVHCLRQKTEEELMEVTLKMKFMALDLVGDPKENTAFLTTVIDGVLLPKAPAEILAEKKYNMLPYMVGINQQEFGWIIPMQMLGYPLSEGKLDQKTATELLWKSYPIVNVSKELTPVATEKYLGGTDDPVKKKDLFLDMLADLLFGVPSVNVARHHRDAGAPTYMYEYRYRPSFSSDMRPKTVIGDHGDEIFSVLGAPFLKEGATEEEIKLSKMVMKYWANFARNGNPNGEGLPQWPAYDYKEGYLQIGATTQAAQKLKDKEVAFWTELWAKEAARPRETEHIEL
The class given is biochemical, rabbit. Conditions: for hydrolysis by pyridine-esterase (substrate specificity): tobacco line #37437 extract, FIG. 4. The protocol:
as §1
Tissue extracts from 3 tobacco R1 seedlings were employed for further studies. Two of the lines (#37437 and #37432) expressed high levels of esterase (~0.5%) and one line (#37436) which expressed no pyridine-esterase was used as negative control. Tissue extracts were incubated with [^14 C]MON 14300 and formation of the monoacid monitored with time. […] In comparison, less that 2% monoacid was detected in line (#37436). […] First, pyridine-esterase was capable of driving the hydrolysis reaction to completion with no apparent product inhibition, and second, there was no endogenous esterase activity in tobacco which catalyzed MON 14300 hydrolysis.

The target in data set [2] is T1, pyridine-esterase. The data set can be described thus: Esterase activity in leaf extracts from R0 tomato and tobacco plants. The class given is biochemical, rabbit. To be noted: R0 tomato and tobacco plants expressing the 60 kD esterase. How it is done: as §1, with “Esterase activity was also assayed during protein purification following a similar procedure except a single time-point (1-2 hrs) of incubation was selected within the linear range of reaction. In vitro assays also employed three commonly used calorimetric (p-nitrophenyl butyrate) or fluorescent (4-methyl umbelliferyl butyrate and 5-bromo-4-chloro-3-indolylacetate) substrates. These substrates are useful in rapidly and qualitatively detecting general esterase activity.” left out

The mark [3] stands for this setting: control vector calli, concentrations above 0.1 μM, after 2-3 weeks.
[4] abbreviates: purified porcine esterase against thiazopyr, double reciprocal plot.

The structures appear in SMILES notation.

Consider `COC(=O)c1c(C(F)F)nc(C(F)(F)F)c(C(=O)n2cccn2)c1CC(C)C` [MON 14300], for which, in the data set with porcine liver esterase (commercial porcine liver esterase), the “rate of hydrolysis compared with thiazopyr” value is given as “hydrolyzed faster than thiazopyr”. Besides, the “esterase activity against substrate” value in the data set with porcine liver esterase is given as “demonstrated activity”. The callus growth with tobacco calli (RLE3 calli, 1.0 to 10 μM) is “stunting with reduced shoot development”; with tobacco calli (calli expressing RLE3, 0.1 μM), “vigorous growth and shoot development”; in the data set on tobacco calli (setting [3]), “little growth”. For the same compound, the callus survival in the data set with tobacco calli was “dead”. Further, in the data set with tobacco calli, the “suitable selection concentration for RLE3-expressing transgenic tobacco calli” value worked out at 0.1 µM. For the same compound, at pyridine-esterase [1] (expressing lines #37432 and #37437, FIG. 3), the “hydrolysis to monoacid metabolite” value is on record as “efficient hydrolysis”. Besides, the “hydrolysis by pyridine-esterase (substrate specificity)” value on pyridine-esterase [1] is “clearly hydrolyzed”. Also, on pyridine-esterase [1] (tobacco, seedling tissue extract, 100 h), the monoacid formed stood at 90%. Besides, the “hydrolysis by leaf extracts” value on pyridine-esterase [2] is recorded as “did demonstrate the hydrolysis”.

Turning to `COC(=O)c1c(C(F)F)nc(C(F)(F)F)c(C2=NCCS2)c1CC(C)C` [thiazopyr], in the data set on porcine liver esterase, the “esterase activity against substrate” value was “demonstrated activity”. Besides, in the data set with porcine liver esterase (setting [4]), the Km was 320 µM and the Vmax worked out at 10.8 nmol/min/mg. For the same compound, in the data set with tobacco calli (RLE3 calli, 1.0 to 10 μM), the callus growth is “stunting with reduced shoot development”. In addition, the callus growth in the data set on tobacco calli (calli expressing RLE3, 0.1 μM) is “vigorous growth and shoot development”. Also, in the data set with tobacco calli, the callus survival is recorded as “dead” and the “suitable selection concentration for RLE3-expressing transgenic tobacco calli” value was 0.1 µM. For the same compound, in the data set on tobacco calli (setting [3]), the callus growth is on record as “little growth”. On pyridine-esterase [1], the “hydrolysis by pyridine-esterase (substrate specificity)” value was “clearly hydrolyzed”. Further, the “hydrolysis by leaf extracts” value at pyridine-esterase [2] is listed as “did demonstrate the hydrolysis”.
